The values that follow come from US11911469B2, “Combination of ACAT1 inhibitor and checkpoint antibody for treating cancer” (Shanghai Institutes for Biological Sciences, Chinese …, priority 2016, dated 2024).

For one data set, the system named is CD8+ T cells. The data set is described as follows: Cytokine and cytolytic granule production of stimulated CD8+ T cells. The format is cell-based, mouse. Particulars: pretreated cells stimulated with 5 μg ml−1 plate-bound anti-CD3/CD28; versus vehicle (DMSO). As to the method: Peripheral T cells were isolated from mouse spleen and draining lymph nodes by a CD8^+ or CD4^+ T cell negative selection kit (Stem cell). To analyse the tumour-infiltrating T cells, tumours were first digested by collagenase IV (sigma), and tumour-infiltrating leukocytes were isolated by 40-70% percoll (GE) gradient centrifugation. To measure the effector function of CD8^+ T cells, the isolated cells were first stimulated with 1 μM ionomycin and 50 ng/ml PMA for 4 hours in the presence of 5 μg/ml BFA, and then stained with PERCP-α-CD8a. Next, cells were fixed with 4% PFA and stained with FITC-α-Granzyme B, APC-α-IFNγ and PE-α-TNFα. In general, to gate the cytokine or granule producing cells, T cells without stimulation or stained with isotype control antibody were used as negative controls. This gating strategy is applicable for most of the flow cytometric analyses. To detect the MDSCs (myeloid-derived suppressor cells) in the tumour, the percoll isolated leukocyte were stained with α-CD45, α-CD11b and α-Ly6G (Gr1), the CD45^+ population was gated, after which the MDSC population (CD11b^+ Gr1^+) in CD45^+ were gated.
(§1) CD8^+ T cells were pretreated with vehicle (dimethylsulfoxide, DMSO), CP-113,818 or K604. Then the cells were stimulated with 5 μg ml^−1 plate-bound anti-CD3/CD28, and cytokine and cytolytic granule production was studied. Cytotoxicity of OT-I CTLs pretreated with CP-113,818 or K604 or vehicle was also studied.

Another data set relates to OT-I CTLs. The data set is described as follows: Cytotoxicity of OT-I CTLs against antigen-pulsed EL-4 cells (LDH assay). It is filed as cell-based, mouse. Particulars: for cytotoxicity of CD8+ T cells: OT-I CTLs pretreated with compound or vehicle. As to the method:
To generate mature Cytotoxic T lymphocytes (CTLs), splenocytes isolated from Acat1^CKO-OT-I mice or WT OT-I mice were stimulated with OVA257-264 (N4) for 3 days in the presence of 10 ng/ml IL-2. Cells were centrifuged and cultured in fresh medium containing 10 ng/ml IL-2 for 2 more days, after which most of the cells in the culture were CTLs. To measure CD8^+ T-cell cytotoxicity, EL-4 cells were pulsed with 2 nM antigenic peptide (N4, A2, T4, G4, R4 or Catnb) for 30 minutes. After washing EL-4 cells and CTLs three times with PBS, we mixed CTLs and antigen-pulsed EL-4 cells (1×10^5) in the killing medium (phenol free-RPMI 1640, 2% FBS), at the ratio of 1:1, 1:2 and 1:5, respectively. After 4 hours, the cytotoxic efficiency was measured by quantifying the release of endogenous lactate dehydrogenase (LDH) from EL-4 cells using a CytoTox 96 Non-Radioactive Cytotoxicity kit (Promega).
as §1
(§2) To study ACAT1 inhibitors in cancer immunotherapies in mice, melanoma-bearing mice were treated with a potent ACAT-1 inhibitor, avasimibe (Ava), or DMSO control, and tumour size and survival were studied. A combined therapy (avasimibe and anti-PD-1) or monotherapies (avasimibe or anti-PD-1) were also studied and compared in treating melanoma. In a lung cancer model, Lewis lung carcinoma-bearing mice were treated with avasimibe or DMSO control, and tumour multiplicity and survival were studied. Cytokine productions of stimulated human (h) CD8^+ T cells pretreated with avasimibe, CP-113,818, or DMSO. CTL cytotoxicity after avasimibe treatment was measured by the LDH assay. OT-I CTLs were pretreated with avasimibe or vehicle for 6 h and then incubated with EL-4 cells pulsed with OVA257-264 peptide for 4 h.

The test system of another data set is B16F10 cells. Nature of the data set: Skin melanoma mouse model, avasimibe therapy. It is filed as in vivo. The following applies: melanoma-bearing mice; avasimibe 15 mg/kg intraperitoneally every 2 days from Day 10; versus DMSO control. The protocol:
B16F10 cells were washed three times with PBS, filtered by a 40 μm strainer. […] From Day 10, tumour size was measured every 2 days, and animal survival rate was recorded every day. Tumour size was calculated as length×width. Mice with tumour size larger than 20 mm at the longest axis were euthanized for ethical consideration. To analyse effector function of tumour-infiltrating T cells, mice were euthanized on Day 16. In the avasimibe therapy, on Day 10 mice bearing tumour of similar size were randomly divided into two groups. From Day 10, avasimibe was injected intraperitoneally to the mice at the dose of 15 mg/kg every 2 days.
as §2, with “OT-I CTLs were pretreated with avasimibe or vehicle for 6 h and then incubated with EL-4 cells pulsed with OVA257-264 peptide for 4 h.” left out

Data set [1] relates to Lewis lung carcinoma (LLC). Nature of the data set: Lewis lung carcinoma (LLC) model, avasimibe therapy. The format is in vivo, mice. The following applies: avasimibe 15 mg/kg intraperitoneally every 3 days, Day 10 to Day 35; versus DMSO control. The protocol:
The LLC cells were washed twice with PBS and filtered by a 40 μm strainer. After which, the LLC cells (2×10^6) were intravenously injected into WT or Acat1^CKO mice at the age of 8-10 weeks. To detect the tumour multiplicity in the lung, the mice were euthanized at Day 35 post tumour inoculation and tumour numbers in the lung were counted. In the avasimibe therapy, on Day 10 mice were randomly divided into two groups. From Day 10 to Day 35 post tumour inoculation, avasimibe was injected intraperitoneally to the mice at the dose of 15 mg/kg every 3 days.
as §2

The next data set concerns human CD8+ T cells. Nature of the data set: Human CD8+ T-cell cytokine production. The format is cell-based. The following applies: PBMCs pretreated 12 hours, stimulated with plate-bound α-CD3 and α-CD28 (5 μg/ml each) for 24 hours; versus DMSO. The protocol: Human peripheral blood mononuclear cells (PBMCs) from healthy donators were stimulated with 5 μg/ml PHA (Sigma) for 2 days and then rested for 1 day. Cells were pretreated with vehicle (DMSO), CP113, 818 or avasimibe for 12 hours and then stimulated with plate-bound α-CD3 (5 μg/ml) and α-CD28 (5 μg/ml) antibodies for 24 hours. Intracellular staining and flow cytometry were used to assess cytokines production of CD8^+ T cells. […] A combined therapy (avasimibe and anti-PD-1) or monotherapies (avasimibe or anti-PD-1) were also studied and compared in treating melanoma. In a lung cancer model, Lewis lung carcinoma-bearing mice were treated with avasimibe or DMSO control, and tumour multiplicity and survival were studied. […] CTL cytotoxicity after avasimibe treatment was measured by the LDH assay. OT-I CTLs were pretreated with avasimibe or vehicle for 6 h and then incubated with EL-4 cells pulsed with OVA257-264 peptide for 4 h.

For data set [2] the following is noted: doses at least up to 750 mg four times daily (i.e., 3000 mg/day); cited from earlier work.

Regarding `CSc1cc(C)nc(SC)c1NC(=O)CN1CCN(CCSc2nc3ccccc3[nH]2)CC1` [K604, 2-[4-[2-(benzimidazol-2-ylthio)ethyl]piperazin-1yl]-N-[2,4-bis(methylthio)-6-methyl-3-pyridyl]acetamide], in the data set with CD8+ T cells, the “cytolytic granule and cytokine productions of CD8+ T cells” value is reported as “augmented”. For the same compound, in the data set with OT-I CTLs, the “cytotoxicity of CD8+ T cells” value is reported as “augmented”.
`CCN(CC)CCO[C@H]1CC[C@@]2(C)C(=CC[C@@H]3[C@@H]2CC[C@]2(C)C(=O)CC[C@@H]32)C1` [U18666A]: the “cytolytic granule and cytokine productions of CD8+ T cells” value in the data set with CD8+ T cells is recorded as “significantly decreased”.
On the same count and under the same terms, under `CC[C@H](C)C(=O)O[C@H]1C[C@@H](C)C=C2C=C[C@H](C)[C@H](CC[C@@H]3C[C@@H](O)CC(=O)O3)[C@H]21` [Lovastatin] stands “significantly decreased”.
As to `CC(C)c1cc(C(C)C)c(CC(=O)NS(=O)(=O)Oc2c(C(C)C)cccc2C(C)C)c(C(C)C)c1` [avasimibe, [2,6-di(propan-2-yl)phenyl] N-[2-[2,4,6-tri(propan-2-yl)phenyl]acetyl]sulfamate], in the data set on OT-I CTLs (OT-I CTLs pretreated for 6 h, then incubated with OVA257-264 pulsed EL-4 cells for 4 h), the “effector function of mouse CD8+ T cells ex vivo (CTL cytotoxicity, LDH assay)” value is recorded as “enhance”. In the data set with B16F10 cells, the survival time result is recorded as “prolonged” and the tumour growth result was “inhibited”. Moreover, in data set [1], the “antitumor effect in Lewis lung carcinoma (tumour multiplicity and survival)” value is reported as “good antitumor effect”. Besides, the “cytokine production of human CD8+ T cells” value in the data set with human CD8+ T cells is “enhanced”. For the same compound, the “tolerability in adult human subjects” value in data set [2] was “well tolerated”.
For `CCCCCCCC[C@H](SCCCCCC)C(=O)Nc1c(SC)cc(C)nc1SC` [CP-113,818, (S)-N-(2,4-Bis(methylthio)-6-methylpyridin-3-yl)-2-(hexylthio)decanoic acid amide], in the data set with CD8+ T cells, the “cytolytic granule and cytokine productions of CD8+ T cells” value was “augmented”. In addition, in the data set with OT-I CTLs, the “cytotoxicity of CD8+ T cells” value is reported as “augmented”.
